Assay results taken from patent US20260242393A1, “Preparation Method for and Use of Dihydrothienopyrimidine Derivative” (Innovstone Therapeutics Limited, priority 2023, published 2026).
Read-outs that look alike come from different tables or passages of the source.

Legend:
PDE4B2 = target: T1, PDE4B2 (Homo sapiens, UniProt Q07343); assay: In vitro PDE4B2 enzyme inhibitory activity (AMP-Glo); assay type: biochemical
T1 construct: purchased BPS bioscience
Protocol: 2.1.1 Preparing stock solutions of compounds in DMSO: Compound powders were dissolved in 100% DMSO to produce 10 mM stock solutions, and oscillated in a shaker until the compounds were completely dissolved.
2.1.3 Preparing working stock solutions: a) A solution of Roflumilast (reference compound) in DMSO was diluted to 60 μM, and then serially diluted 4-fold into 10 concentration gradients. B) The solutions of the test compounds in DMSO were diluted to 200 μM, and then serially diluted 3-fold. C) A 200× positive control (60 μM Roflumilast) and a 200× vehicle control (100% DMSO) were prepared. D) The assay plate was centrifuged at 1000 rpm for 1 minute.
(1) 20 nL of compound dilution solutions were transferred with Echo 550 into each well of the assay plate.
(2) The assay plate was sealed and centrifuged at 1000 rpm for 1 minute.
(3) 2×PDE4B2/PDE4D2 was prepared in an ice-cold PDE assay buffer.
(4) 2 μL of 2×PDE4B2/PDE4D2 was added to each well of the assay plate prepared in step 2.
(5) The assay plate was sealed and allowed to equilibrate at room temperature for 10 minutes.
(6) 2× Cyclic-3′,5′-AMP was prepared in a PDE assay buffer.
7) 2 μL of 2× Cyclic-3′,5′-AMP (prepared in step 6) was added to each well of the assay plate (prepared in step 5) to initiate the reaction. The plate was incubated at room temperature for 60 minutes.
8) 4 μL AMP-Glo Reagent I was added, and the plate was incubated at room temperature for 60 minutes.
9) 8 μL AMP detection reagent was added. The plate was incubated at room temperature for 60 minutes.
10) The RLU signal was read on an Envision 2105 plate reader.

[1] = Pharmacokinetic assay in mice, plasma concentration by LC-MS/MS; assay type: in vivo, CD-1 male mice; details: male, CD-1, mouse
Protocol: Assay 2: Pharmacokinetic Assay by Using LC-MS/MS to Determine the Compound Concentration in Mice
Assay principle: LC-MS/MS was used to determine the drug concentration of the target drug in plasma at different times, and to plot the pharmacokinetic curve of the target compound in vivo.
An accurately weighed amount of the test compound was dissolved in 5% DMSO (INNOCHEM, INBZZHCAE) by vortex mixing. Subsequently, 10% Solutol (BASF, 75389809T0) was added and homogenized by vortexing.
Finally, 85% saline (Fengyuan, 220505102) was incorporated with vortex mixing to achieve dosing formulations at 0.4 mg/mL and 1.0 mg/mL.
The mice were sourced from CD-1 male mice (JH Laboratory Animal Co. LTD), with three mice for each group.
The mice were administered with 2 mg/kg intravenously (IV) or 10 mg/kg by oral gavage (PO). The blood samples were collected at 5 min (IV group only), 15 min, 30 min, 1 h, 2 h, 4h, 8h, and 24h (PO group only) after administration.
Approximately 30 μL blood samples were collected at each time point and placed into anticoagulant tubes containing EDTA-K2 anticoagulant. Plasma was obtained by centrifugation within 30 minutes. Whole blood samples before centrifugation were placed on wet ice. For each test compound, 42 plasma samples were collected.
All collected plasma samples were stored on dry ice or in a freezer until analysis. The drug concentration was determined using a Triple-quadrupole MS system (SCIEX), including standard curve and quality control preparation, and sample preparation.
Standard curve and quality control preparation: a working solution was prepared by ACN:H2O (1:1) dilution, and 3 μL of the above standard curve and quality control working solution was added to 57 μL of blank plasma.
Sample preparation: 7 μL of plasma sample was added to 70 μL of internal standard solution (Propranolol, Tolbutamide, Glipizide, Osalmid, each 200 ng/mL in ACN). The mixture was mixed for 5 minutes and centrifuged at 4000 rpm for 10 minutes. 50 μL of supernatant was taken and transferred to a new plate containing 200 μL ultrapure water for sample analysis.
Chromatographic conditions were optimized for each sample, regarding mobile phase composition, elution gradient conditions, flow rate, retention time, etc. The chromatographic column was Waters Acquity UPLC HSS T3 1.8 μm, 2.1×50 mm. The injection volume was 2 μL.
An electrospray ionization source was used in mass spectrometry. In the positive ion detection mode, the multi-channel reaction monitoring (MRM) mode was selected for secondary mass spectrometry analysis.
Based on the drug concentration-time data, pharmacokinetic parameters were calculated using WinNonlin 8.2 software according to a non-compartmental model, including peak concentration Cmax, peak time Tmax, area under the drug-time curve AUC, and elimination half-life t1/2. The AUC was calculated using the linear trapezoidal method (linear up log down).

[2] = PDE4B2 enzyme inhibition, read-out: PDE4B2 IC50
[3] = read-out: IC50 values of PDE4B2 enzyme inhibition

T1 sequence (Q07343 1-564 isoform Q07343-2): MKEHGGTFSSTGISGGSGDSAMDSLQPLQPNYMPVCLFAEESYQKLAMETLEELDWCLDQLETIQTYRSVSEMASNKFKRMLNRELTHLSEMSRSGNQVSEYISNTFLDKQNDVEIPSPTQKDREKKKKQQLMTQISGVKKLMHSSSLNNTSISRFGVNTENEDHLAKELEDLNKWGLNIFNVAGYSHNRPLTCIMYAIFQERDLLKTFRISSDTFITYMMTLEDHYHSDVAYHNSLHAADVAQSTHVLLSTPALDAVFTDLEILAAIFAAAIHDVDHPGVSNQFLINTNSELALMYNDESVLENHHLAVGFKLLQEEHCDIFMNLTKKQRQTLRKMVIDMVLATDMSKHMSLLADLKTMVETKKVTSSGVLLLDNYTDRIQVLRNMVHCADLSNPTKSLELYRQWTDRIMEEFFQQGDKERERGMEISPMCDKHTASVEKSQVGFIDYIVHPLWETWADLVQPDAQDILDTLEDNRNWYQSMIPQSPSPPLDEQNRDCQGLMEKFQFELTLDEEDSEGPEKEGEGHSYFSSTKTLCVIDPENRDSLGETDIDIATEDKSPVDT

Question: For `[O-][S+]1CCc2nc(N3CCC(c4ncc(Cl)cn4)CC3)nc(NC3(CO)CCC3)c21` (centres unmarked) [Control 1, reference compound], which IC50 (PDE4B2; [2]) is on record?
Answer: 20 to 50 nM

Question: And the AUC(0-inf) ([1]; IV, 2 mg/kg)?
Answer: 2900 ng·h/mL

Question: And the clearance ([1]; IV, 2 mg/kg)?
Answer: 11.8 mL/min/kg

Question: And the half-life ([1]; IV, 2 mg/kg)?
Answer: 1.57 h

Question: What about the AUC(0-inf) ([1]; PO, 10 mg/kg) of the same molecule?
Answer: 12100 ng·h/mL

Question: What about the Cmax ([1]; PO, 10 mg/kg) of the same molecule?
Answer: 2250 ng/mL

Question: And the Tmax ([1]; PO, 10 mg/kg)?
Answer: 0.5 h

Question: For `[O-][S+]1CCc2nc(N3Cc4ccc(Cl)cc4C3)nc(NC3(CO)CCC3)c21` (racemic) [Compound 25, (R/S)-2-(5-chloroisoindolin-2-yl)-4-((1-(hydroxymethyl)cyclobutyl)amino)-6,7-dihydrothieno[3,2-d]pyrimidine 5-oxide], which IC50 (PDE4B2; [2]) is on record?
Answer: 2 to 5 nM

Question: And the AUC(0-inf) ([1]; IV, 2 mg/kg)?
Answer: 17600 ng·h/mL

Question: What about the clearance ([1]; IV, 2 mg/kg) of the same molecule?
Answer: 2.4 mL/min/kg

Question: What about the half-life ([1]; IV, 2 mg/kg) of the same molecule?
Answer: 5.01 h

Question: And the AUC(0-inf) ([1]; PO, 10 mg/kg)?
Answer: 23100 ng·h/mL

Question: And the Cmax ([1]; PO, 10 mg/kg)?
Answer: 5950 ng/mL

Question: And the Tmax ([1]; PO, 10 mg/kg)?
Answer: 1.33 h

Question: What does the source list for `COC1(c2ccc(Cl)cc2)CN(c2nc3c(c(NC4CCOCC4)n2)[S+]([O-])CC3)C1` (racemic) [Compound 88, (R/S)-2-(3-(4-chlorophenyl)-3-methoxyazetidin-1-yl)-4-((tetrahydro-2H-pyran-4-yl)amino)-6,7-dihydrothieno[3,2-d]pyrimidine 5-oxide]?
Answer: IC50 (PDE4B2; [2]): ≤ 2 nM; IC50 (PDE4B2; [3]): < 1 nM

Question: Which IC50 (PDE4B2; [2]) does the source give for `[2H]C([2H])([2H])OC1(c2ccc(Cl)cc2)CN(c2nc3c(c(NC4(CO)CCC4)n2)[S+]([O-])CC3)C1` (racemic) [Compound 92, (R/S)-2-(3-(4-chlorophenyl)-3-(methoxy-d3)azetidin-1-yl)-4-((1-(hydroxymethyl)cyclobutyl)amino)-6,7-dihydrothieno[3,2-d]pyrimidine 5-oxide] here?
Answer: ≤ 2 nM

Question: And the IC50 (PDE4B2; [3])?
Answer: < 1 nM

Question: Which IC50 (PDE4B2; [2]) does the source give for `[O-][S+]1CCc2nc(N3CC=C(c4ccc(OC(F)F)cc4)C3)nc(NC3(CO)CCC3)c21` (racemic) [Compound 14, (R/S)-2-(3-(4-(difluoromethoxy)phenyl)-2,5-dihydro-1H-pyrrol-1-yl)-4-((1-(hydroxymethyl)cyclobutyl)amino)-6,7-dihydrothieno[3,2-d]pyrimidine 5-oxide] here?
Answer: 2 to 5 nM

Question: Which IC50 (PDE4B2; [2]) does the source give for `[O-][S+]1CCc2nc(N3Cc4ccc(OC(F)F)cc4C3)nc(NC3(CO)CCC3)c21` (racemic) [Compound 87, (R/S)-2-(5-(difluoromethoxy)isoindolin-2-yl)-4-((1-(hydroxymethyl)cyclobutyl)amino)-6,7-dihydrothieno[3,2-d]pyrimidine 5-oxide] here?
Answer: 2 to 5 nM

Question: With `COc1ccc(C2(OC)CN(c3nc4c(c(NC5CCOCC5)n3)[S+]([O-])CC4)C2)cc1` (racemic) [Compound 108, (R/S)-2-(3-methoxy-3-(4-methoxyphenyl)azetidin-1-yl)-4-((tetrahydro-2H-pyran-4-yl)amino)-6,7-dihydrothieno[3,2-d]pyrimidine 5-oxide] as the molecule, how does the IC50 (PDE4B2; [2]) read?
Answer: ≤ 2 nM

Question: And the IC50 (PDE4B2; [3])?
Answer: < 1 nM

Question: For `[O-][S+]1CCc2nc(N3Cc4ccc(Cl)cc4C3)nc(NC3CCOCC3)c21` (racemic) [Compound 85, (R/S)-2-(5-chloroisoindolin-2-yl)-4-((tetrahydro-2H-pyran-4-yl)amino)-6,7-dihydrothieno[3,2-d]pyrimidine 5-oxide], which IC50 (PDE4B2; [2]) is on record?
Answer: ≤ 2 nM
